{"source": "ChEMBL document CHEMBL1938230", "about": "“6-Position optimization of tricyclic 4-quinolone-based inhibitors of glycogen synthase kinase-3β: discovery of nitrile derivatives with picomolar potency” (Bioorg Med Chem Lett, 2012)", "key": {"HL-60 [1]": {"system": "HL-60", "assay": "Inhibition of human PITSLRE in HL-60 cells lysate assessed as reduction of labeling of acyl-phosphate ATP probe at 100 nM"}, "[2]": {"target": "Phosphatidylinositol 4-phosphate 3-kinase C2 domain-containing subunit beta (Homo sapiens) (UniProt O00750)", "assay": "Inhibition of human PIK3C2B in HL-60 cells lysate assessed as reduction of labeling of acyl-phosphate ATP probe at 100 nM", "format": "cell-free"}, "[3]": {"target": "Phosphatidylinositol 4,5-bisphosphate 3-kinase catalytic subunit beta isoform (Homo sapiens) (UniProt P42338)", "sequence (P42338 whole entry, looked up, canonical isoform)": "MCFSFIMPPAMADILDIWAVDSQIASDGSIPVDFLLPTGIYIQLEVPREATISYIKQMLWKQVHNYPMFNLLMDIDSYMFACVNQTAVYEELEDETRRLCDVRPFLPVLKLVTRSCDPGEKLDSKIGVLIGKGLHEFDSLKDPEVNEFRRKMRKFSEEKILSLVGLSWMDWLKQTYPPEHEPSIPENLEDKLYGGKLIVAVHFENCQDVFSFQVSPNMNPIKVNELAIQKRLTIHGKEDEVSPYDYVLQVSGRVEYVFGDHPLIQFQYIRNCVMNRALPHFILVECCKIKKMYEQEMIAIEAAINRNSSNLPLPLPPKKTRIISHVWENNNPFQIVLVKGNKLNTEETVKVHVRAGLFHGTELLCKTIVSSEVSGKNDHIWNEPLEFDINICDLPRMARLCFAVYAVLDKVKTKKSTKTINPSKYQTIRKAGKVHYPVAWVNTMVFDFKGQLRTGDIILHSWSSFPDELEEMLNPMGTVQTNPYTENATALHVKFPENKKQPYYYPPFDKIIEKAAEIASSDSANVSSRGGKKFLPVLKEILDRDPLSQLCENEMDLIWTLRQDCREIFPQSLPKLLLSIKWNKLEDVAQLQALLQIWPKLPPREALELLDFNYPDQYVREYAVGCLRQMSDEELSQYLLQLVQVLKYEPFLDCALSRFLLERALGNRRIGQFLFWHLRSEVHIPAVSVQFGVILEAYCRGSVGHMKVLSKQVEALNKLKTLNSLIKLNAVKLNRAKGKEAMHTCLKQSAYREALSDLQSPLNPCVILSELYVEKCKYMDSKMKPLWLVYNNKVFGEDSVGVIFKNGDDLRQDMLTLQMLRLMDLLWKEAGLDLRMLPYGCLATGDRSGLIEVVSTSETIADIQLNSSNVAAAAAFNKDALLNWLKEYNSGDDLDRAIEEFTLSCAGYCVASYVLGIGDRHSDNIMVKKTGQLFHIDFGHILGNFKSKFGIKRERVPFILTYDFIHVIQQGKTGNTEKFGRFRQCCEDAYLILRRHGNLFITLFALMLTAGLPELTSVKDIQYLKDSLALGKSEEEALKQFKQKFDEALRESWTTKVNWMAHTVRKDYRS", "assay": "Inhibition of human PIK3CB in HL-60 cells lysate assessed as reduction of labeling of acyl-phosphate ATP probe at 100 nM", "format": "cell-free"}, "[4]": {"target": "eIF-2-alpha kinase GCN2 (Homo sapiens) (UniProt Q9P2K8)", "sequence (Q9P2K8 whole entry, the tested form may be a part)": "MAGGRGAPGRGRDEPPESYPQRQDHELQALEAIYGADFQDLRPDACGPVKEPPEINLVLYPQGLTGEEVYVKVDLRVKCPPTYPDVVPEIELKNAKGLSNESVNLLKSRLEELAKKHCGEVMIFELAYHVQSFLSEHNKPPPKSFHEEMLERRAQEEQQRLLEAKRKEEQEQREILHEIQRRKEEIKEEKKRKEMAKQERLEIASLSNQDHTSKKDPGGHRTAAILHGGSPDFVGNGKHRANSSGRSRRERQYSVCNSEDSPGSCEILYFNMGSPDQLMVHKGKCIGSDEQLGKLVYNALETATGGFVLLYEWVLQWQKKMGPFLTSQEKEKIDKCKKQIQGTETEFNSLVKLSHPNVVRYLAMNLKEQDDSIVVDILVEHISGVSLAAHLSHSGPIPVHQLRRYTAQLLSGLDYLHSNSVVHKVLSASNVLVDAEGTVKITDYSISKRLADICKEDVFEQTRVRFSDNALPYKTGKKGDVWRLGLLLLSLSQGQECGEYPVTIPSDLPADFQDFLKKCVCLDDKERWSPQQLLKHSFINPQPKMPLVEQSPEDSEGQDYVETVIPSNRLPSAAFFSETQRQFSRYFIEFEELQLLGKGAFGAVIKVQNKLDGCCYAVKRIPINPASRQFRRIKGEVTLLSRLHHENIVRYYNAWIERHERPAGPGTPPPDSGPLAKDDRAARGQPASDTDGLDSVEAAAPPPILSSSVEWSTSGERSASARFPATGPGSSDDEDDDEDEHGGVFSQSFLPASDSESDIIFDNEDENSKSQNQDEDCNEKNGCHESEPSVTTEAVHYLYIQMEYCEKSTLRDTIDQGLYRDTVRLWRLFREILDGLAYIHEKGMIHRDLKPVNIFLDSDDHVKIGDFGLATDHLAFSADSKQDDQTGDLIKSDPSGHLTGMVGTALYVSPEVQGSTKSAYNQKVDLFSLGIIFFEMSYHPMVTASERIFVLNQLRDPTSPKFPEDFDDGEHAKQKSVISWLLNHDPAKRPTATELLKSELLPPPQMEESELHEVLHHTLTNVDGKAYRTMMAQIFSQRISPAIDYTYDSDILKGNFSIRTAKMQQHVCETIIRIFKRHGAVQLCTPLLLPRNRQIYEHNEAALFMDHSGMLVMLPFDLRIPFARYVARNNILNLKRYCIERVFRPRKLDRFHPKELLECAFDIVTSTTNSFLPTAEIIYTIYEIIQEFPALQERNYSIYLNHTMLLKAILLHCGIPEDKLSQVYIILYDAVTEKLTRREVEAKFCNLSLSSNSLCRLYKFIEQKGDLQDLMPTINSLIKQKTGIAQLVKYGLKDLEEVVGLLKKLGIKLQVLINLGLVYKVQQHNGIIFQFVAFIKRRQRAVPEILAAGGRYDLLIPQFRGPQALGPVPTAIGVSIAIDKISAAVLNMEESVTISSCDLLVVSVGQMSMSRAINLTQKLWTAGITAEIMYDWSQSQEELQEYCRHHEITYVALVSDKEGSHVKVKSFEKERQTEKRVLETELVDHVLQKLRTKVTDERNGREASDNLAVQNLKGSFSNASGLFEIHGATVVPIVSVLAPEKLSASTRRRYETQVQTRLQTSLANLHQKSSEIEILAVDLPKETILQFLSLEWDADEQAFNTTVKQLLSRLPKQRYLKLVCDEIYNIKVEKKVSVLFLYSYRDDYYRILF", "assay": "Inhibition of human GCN2 domain2 in HL-60 cells lysate assessed as reduction of labeling of acyl-phosphate ATP probe at 100 nM", "format": "cell-free"}, "HL-60 [5]": {"system": "HL-60", "assay": "Inhibition of human MST4/YSK1 in HL-60 cells lysate assessed as reduction of labeling of acyl-phosphate ATP probe at 100 nM"}, "[6]": {"target": "Serine/threonine-protein kinase OSR1 (Homo sapiens) (UniProt O95747)", "sequence (O95747 2-527 limits assumed)": "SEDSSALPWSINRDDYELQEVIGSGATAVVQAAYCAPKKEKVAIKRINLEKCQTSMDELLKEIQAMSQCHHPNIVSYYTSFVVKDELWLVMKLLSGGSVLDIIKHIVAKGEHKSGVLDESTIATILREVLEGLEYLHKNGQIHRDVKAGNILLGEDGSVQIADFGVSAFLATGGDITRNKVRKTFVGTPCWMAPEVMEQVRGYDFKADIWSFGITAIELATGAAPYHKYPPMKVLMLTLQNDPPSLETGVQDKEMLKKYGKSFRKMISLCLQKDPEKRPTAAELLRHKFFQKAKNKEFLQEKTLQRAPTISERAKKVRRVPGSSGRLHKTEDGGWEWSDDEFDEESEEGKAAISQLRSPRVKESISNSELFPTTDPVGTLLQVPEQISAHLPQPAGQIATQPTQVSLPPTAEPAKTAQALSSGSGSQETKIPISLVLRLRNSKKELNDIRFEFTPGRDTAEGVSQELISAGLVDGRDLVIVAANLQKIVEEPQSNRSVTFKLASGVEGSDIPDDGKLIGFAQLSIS", "assay": "Inhibition of human OSR1 in HL-60 cells lysate assessed as reduction of labeling of acyl-phosphate ATP probe at 100 nM", "format": "cell-free"}, "[7]": {"target": "T1, Serine/threonine-protein kinase TAO2 (Homo sapiens) (UniProt Q9UL54)", "T1 sequence (whole entry)": "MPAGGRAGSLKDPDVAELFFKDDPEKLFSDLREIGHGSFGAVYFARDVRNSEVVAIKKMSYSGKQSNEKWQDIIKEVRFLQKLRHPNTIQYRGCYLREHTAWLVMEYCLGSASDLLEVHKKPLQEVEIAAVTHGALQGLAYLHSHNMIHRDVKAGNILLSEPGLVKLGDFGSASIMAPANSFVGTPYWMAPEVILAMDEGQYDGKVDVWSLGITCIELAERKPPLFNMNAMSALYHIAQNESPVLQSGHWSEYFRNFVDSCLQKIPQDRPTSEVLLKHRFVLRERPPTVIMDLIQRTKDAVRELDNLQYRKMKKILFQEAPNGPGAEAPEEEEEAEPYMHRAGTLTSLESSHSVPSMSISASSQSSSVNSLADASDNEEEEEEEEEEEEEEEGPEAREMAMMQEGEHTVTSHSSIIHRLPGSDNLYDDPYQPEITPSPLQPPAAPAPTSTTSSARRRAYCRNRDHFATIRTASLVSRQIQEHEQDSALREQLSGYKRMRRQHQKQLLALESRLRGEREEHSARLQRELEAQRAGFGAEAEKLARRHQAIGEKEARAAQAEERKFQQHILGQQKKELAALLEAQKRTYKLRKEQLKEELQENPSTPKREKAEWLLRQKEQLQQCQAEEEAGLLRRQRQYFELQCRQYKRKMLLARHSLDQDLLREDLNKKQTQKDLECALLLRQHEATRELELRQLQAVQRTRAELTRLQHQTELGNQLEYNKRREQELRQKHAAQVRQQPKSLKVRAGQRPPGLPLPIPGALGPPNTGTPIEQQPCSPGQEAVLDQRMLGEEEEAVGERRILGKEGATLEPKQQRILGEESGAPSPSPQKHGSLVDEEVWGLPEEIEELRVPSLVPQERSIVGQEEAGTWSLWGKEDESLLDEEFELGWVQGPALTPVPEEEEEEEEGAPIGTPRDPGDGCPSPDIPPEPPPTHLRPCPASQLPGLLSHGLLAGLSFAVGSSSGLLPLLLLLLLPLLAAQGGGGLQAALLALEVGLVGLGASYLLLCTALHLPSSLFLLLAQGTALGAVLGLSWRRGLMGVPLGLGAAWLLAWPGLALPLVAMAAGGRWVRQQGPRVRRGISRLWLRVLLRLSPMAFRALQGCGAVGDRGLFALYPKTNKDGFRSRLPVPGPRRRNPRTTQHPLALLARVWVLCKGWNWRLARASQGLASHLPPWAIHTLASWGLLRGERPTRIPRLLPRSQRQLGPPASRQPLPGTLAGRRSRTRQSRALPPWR", "assay": "Inhibition of human TAO2 in HL-60 cells lysate assessed as reduction of labeling of acyl-phosphate ATP probe at 100 nM", "format": "cell-free"}, "[8]": {"target": "Tyrosine-protein kinase SYK (Homo sapiens) (UniProt P43405)", "assay": "Inhibition of human SYK in HL-60 cells lysate assessed as reduction of labeling of acyl-phosphate ATP probe at 100 nM", "format": "cell-free"}, "[9]": {"target": "Interleukin-1 receptor-associated kinase 1 (Homo sapiens) (UniProt P51617)", "sequence (P51617 whole entry, looked up)": "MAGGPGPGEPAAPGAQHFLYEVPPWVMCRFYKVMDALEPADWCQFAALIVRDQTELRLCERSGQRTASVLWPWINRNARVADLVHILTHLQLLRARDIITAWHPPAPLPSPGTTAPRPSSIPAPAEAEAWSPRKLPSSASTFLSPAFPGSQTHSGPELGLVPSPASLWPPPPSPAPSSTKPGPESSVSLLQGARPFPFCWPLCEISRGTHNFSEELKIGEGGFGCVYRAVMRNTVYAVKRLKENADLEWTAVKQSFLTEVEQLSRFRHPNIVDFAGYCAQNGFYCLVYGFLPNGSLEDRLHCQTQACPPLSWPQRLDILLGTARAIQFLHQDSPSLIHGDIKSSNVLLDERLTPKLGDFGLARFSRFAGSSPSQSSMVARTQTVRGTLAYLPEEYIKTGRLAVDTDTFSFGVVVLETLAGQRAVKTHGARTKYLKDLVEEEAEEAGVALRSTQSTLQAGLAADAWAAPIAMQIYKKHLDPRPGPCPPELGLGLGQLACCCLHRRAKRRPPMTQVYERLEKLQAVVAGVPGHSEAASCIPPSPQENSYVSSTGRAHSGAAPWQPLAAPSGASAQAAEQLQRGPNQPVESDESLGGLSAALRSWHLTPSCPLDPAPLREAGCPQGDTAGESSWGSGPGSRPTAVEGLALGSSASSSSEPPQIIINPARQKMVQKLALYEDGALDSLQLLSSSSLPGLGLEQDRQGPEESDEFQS", "assay": "Inhibition of human IRAK1 in HL-60 cells lysate assessed as reduction of labeling of acyl-phosphate ATP probe at 100 nM", "format": "cell-free"}, "HL-60 [10]": {"system": "HL-60", "assay": "Inhibition of human KSR1/KSR2 in HL-60 cells lysate assessed as reduction of labeling of acyl-phosphate ATP probe at 100 nM"}, "[11]": {"target": "Leucine-rich repeat serine/threonine-protein kinase 2 (Homo sapiens) (UniProt Q5S007)", "assay": "Inhibition of human LRRK2 in HL-60 cells lysate assessed as reduction of labeling of acyl-phosphate ATP probe at 100 nM", "format": "cell-free"}, "[12]": {"target": "Glycogen synthase kinase-3 beta (Homo sapiens, UniProt P49841)", "sequence (P49841 whole entry)": "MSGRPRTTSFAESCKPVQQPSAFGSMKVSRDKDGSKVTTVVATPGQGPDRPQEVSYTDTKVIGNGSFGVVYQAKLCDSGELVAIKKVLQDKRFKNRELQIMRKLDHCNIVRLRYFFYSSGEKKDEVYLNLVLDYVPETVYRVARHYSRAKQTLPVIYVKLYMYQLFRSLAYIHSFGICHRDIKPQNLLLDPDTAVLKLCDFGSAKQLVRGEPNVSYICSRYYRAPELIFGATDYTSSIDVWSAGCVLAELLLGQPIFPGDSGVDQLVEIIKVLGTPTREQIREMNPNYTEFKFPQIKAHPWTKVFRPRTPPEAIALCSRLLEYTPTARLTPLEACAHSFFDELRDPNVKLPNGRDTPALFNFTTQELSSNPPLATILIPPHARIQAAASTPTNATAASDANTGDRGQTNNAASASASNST", "assay": "Inhibition of GSK3-beta"}, "Escherichia coli": {"system": "Escherichia coli", "assay": "Antibacterial activity against Escherichia coli ATCC 8739", "format": "ADME, organism-based"}, "[13]": {"target": "Cyclin-dependent kinase 7 (Homo sapiens) (UniProt P50613)", "sequence (P50613 whole entry)": "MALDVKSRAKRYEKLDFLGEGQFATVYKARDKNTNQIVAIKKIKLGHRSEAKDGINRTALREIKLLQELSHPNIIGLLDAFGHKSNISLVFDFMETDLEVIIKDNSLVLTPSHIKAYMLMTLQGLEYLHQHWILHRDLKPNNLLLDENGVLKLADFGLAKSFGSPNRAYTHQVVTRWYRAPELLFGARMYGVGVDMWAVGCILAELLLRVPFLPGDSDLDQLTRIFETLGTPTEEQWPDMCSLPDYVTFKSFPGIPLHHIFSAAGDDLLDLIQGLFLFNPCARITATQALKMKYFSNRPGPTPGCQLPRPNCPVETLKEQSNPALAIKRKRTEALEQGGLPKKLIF", "assay": "Inhibition of human CDK7 in HL-60 cells lysate assessed as reduction of labeling of acyl-phosphate ATP probe at 100 nM", "format": "cell-free"}, "[14]": {"target": "c-Jun N-terminal kinase, JNK (Homo sapiens) (UniProt P45983+P53779+P45984)", "assay": "Inhibition of human JNK1/JNK2/JNK3 in HL-60 cells lysate assessed as reduction of labeling of acyl-phosphate ATP probe at 100 nM", "format": "cell-free"}, "[15]": {"target": "STE20-like serine/threonine-protein kinase SLK (Homo sapiens) (UniProt Q9H2G2)", "assay": "Inhibition of human SLK in HL-60 cells lysate assessed as reduction of labeling of acyl-phosphate ATP probe at 100 nM"}}, "data": [{"compound": "C[C@H]1COc2c(NCCCc3ccccn3)c(F)c(N)c3c(=O)c(C#N)cn1c23", "values": [{"measurement": "inhibition at 0.1 µM", "setting": "HL-60 [1]", "result": "< 35", "unit": "%"}, {"measurement": "inhibition", "setting": "[2]", "result": "< 35", "unit": "%"}, {"measurement": "inhibition", "setting": "[3]", "result": "< 35", "unit": "%"}, {"measurement": "inhibition", "setting": "[4]", "result": "< 35", "unit": "%"}, {"measurement": "inhibition at 0.1 µM", "setting": "HL-60 [5]", "result": "< 35", "unit": "%"}, {"measurement": "inhibition", "setting": "[6]", "result": "< 35", "unit": "%"}, {"measurement": "inhibition", "setting": "[7]", "result": "< 35", "unit": "%"}, {"measurement": "inhibition", "setting": "[8]", "result": "< 35", "unit": "%"}, {"measurement": "inhibition", "setting": "[9]", "result": "< 35", "unit": "%"}, {"measurement": "inhibition at 0.1 µM", "setting": "HL-60 [10]", "result": "< 35", "unit": "%"}, {"measurement": "inhibition", "setting": "[11]", "result": "< 35", "unit": "%"}, {"measurement": "IC50", "setting": "[12]", "result": 0.6, "unit": "nM"}, {"measurement": "MIC", "setting": "Escherichia coli", "result": "> 298", "unit": "µM"}, {"measurement": "inhibition", "setting": "[13]", "result": "< 35", "unit": "%"}, {"measurement": "inhibition", "setting": "[14]", "result": "< 35", "unit": "%"}, {"measurement": "inhibition", "setting": "[15]", "result": "< 35", "unit": "%"}]}, {"compound": "C[C@H]1COc2c(NCCCc3ccccn3)c(F)c(N)c3c(=O)c(C(=O)O)cn1c23", "values": [{"measurement": "inhibition at 0.1 µM", "setting": "HL-60 [1]", "result": "< 35", "unit": "%"}, {"measurement": "inhibition", "setting": "[2]", "result": "< 35", "unit": "%"}, {"measurement": "inhibition", "setting": "[3]", "result": "< 35", "unit": "%"}, {"measurement": "inhibition", "setting": "[4]", "result": "< 35", "unit": "%"}, {"measurement": "inhibition at 0.1 µM", "setting": "HL-60 [5]", "result": "< 35", "unit": "%"}, {"measurement": "inhibition", "setting": "[6]", "result": "< 35", "unit": "%"}, {"measurement": "inhibition", "setting": "[7]", "result": "< 35", "unit": "%"}, {"measurement": "inhibition", "setting": "[8]", "result": "< 35", "unit": "%"}, {"measurement": "inhibition", "setting": "[9]", "result": "< 35", "unit": "%"}, {"measurement": "inhibition at 0.1 µM", "setting": "HL-60 [10]", "result": "< 35", "unit": "%"}, {"measurement": "inhibition", "setting": "[11]", "result": "< 35", "unit": "%"}, {"measurement": "IC50", "setting": "[12]", "result": 10, "unit": "nM"}, {"measurement": "MIC", "setting": "Escherichia coli", "result": 19, "unit": "µM"}, {"measurement": "inhibition", "setting": "[13]", "result": "< 35", "unit": "%"}, {"measurement": "inhibition", "setting": "[14]", "result": "< 35", "unit": "%"}, {"measurement": "inhibition", "setting": "[15]", "result": "< 35", "unit": "%"}]}, {"compound": "C[C@H]1COc2c(NCCCn3cccn3)c(F)c(N)c3c(=O)c(C(=O)O)cn1c23", "values": [{"measurement": "inhibition at 0.1 µM", "setting": "HL-60 [1]", "result": "< 35", "unit": "%"}, {"measurement": "inhibition", "setting": "[2]", "result": "< 35", "unit": "%"}, {"measurement": "inhibition", "setting": "[3]", "result": "< 35", "unit": "%"}, {"measurement": "inhibition", "setting": "[4]", "result": "< 35", "unit": "%"}, {"measurement": "inhibition at 0.1 µM", "setting": "HL-60 [5]", "result": "< 35", "unit": "%"}, {"measurement": "inhibition", "setting": "[6]", "result": "< 35", "unit": "%"}, {"measurement": "inhibition", "setting": "[7]", "result": "< 35", "unit": "%"}, {"measurement": "inhibition", "setting": "[8]", "result": "< 35", "unit": "%"}, {"measurement": "inhibition", "setting": "[9]", "result": "< 35", "unit": "%"}, {"measurement": "inhibition at 0.1 µM", "setting": "HL-60 [10]", "result": "< 35", "unit": "%"}, {"measurement": "inhibition", "setting": "[11]", "result": "< 35", "unit": "%"}, {"measurement": "IC50", "setting": "[12]", "result": 16, "unit": "nM"}, {"measurement": "MIC", "setting": "Escherichia coli", "result": 20, "unit": "µM"}, {"measurement": "inhibition", "setting": "[13]", "result": "< 35", "unit": "%"}, {"measurement": "inhibition", "setting": "[14]", "result": "< 35", "unit": "%"}, {"measurement": "inhibition", "setting": "[15]", "result": "< 35", "unit": "%"}]}, {"compound": "C[C@H]1COc2c(NCCCn3cccn3)c(F)c(N)c3c(=O)c(C#N)cn1c23", "values": [{"measurement": "inhibition at 0.1 µM", "setting": "HL-60 [1]", "result": "< 35", "unit": "%"}, {"measurement": "inhibition", "setting": "[2]", "result": "< 35", "unit": "%"}, {"measurement": "inhibition", "setting": "[3]", "result": "< 35", "unit": "%"}, {"measurement": "inhibition", "setting": "[4]", "result": "< 35", "unit": "%"}, {"measurement": "inhibition at 0.1 µM", "setting": "HL-60 [5]", "result": "< 35", "unit": "%"}, {"measurement": "inhibition", "setting": "[6]", "result": "< 35", "unit": "%"}, {"measurement": "inhibition", "setting": "[7]", "result": "< 35", "unit": "%"}, {"measurement": "inhibition", "setting": "[8]", "result": "< 35", "unit": "%"}, {"measurement": "inhibition", "setting": "[9]", "result": "< 35", "unit": "%"}, {"measurement": "inhibition at 0.1 µM", "setting": "HL-60 [10]", "result": "< 35", "unit": "%"}, {"measurement": "inhibition", "setting": "[11]", "result": "< 35", "unit": "%"}, {"measurement": "IC50", "setting": "[12]", "result": 0.86, "unit": "nM"}, {"measurement": "MIC", "setting": "Escherichia coli", "result": "> 306", "unit": "µM"}, {"measurement": "inhibition", "setting": "[13]", "result": "< 35", "unit": "%"}, {"measurement": "inhibition", "setting": "[14]", "result": "< 35", "unit": "%"}, {"measurement": "inhibition", "setting": "[15]", "result": "< 35", "unit": "%"}]}]}
